Data set [1] has as its system neuroblastoma cells. To be noted: cited from earlier work.
For data set [2], the system named is PS-mutant MEFs. Put plainly: Cinnamycin sensitivity, live/dead assay in MEFs. Type of data set: cell-based, mouse. To be noted: PS-mutant MEFs vs. control MEFs; 1 μM cinnamycin for 10 min at 37° C., live/dead assay (FIG. 41D). As for the experimental part:
FIG. 41. Phospholipid synthesis in MEFs. FIG. 41A: Synthesis of PtdSer and PtdEtn after 3H-Ser labeling for the indicated times (hours) (n=3). FIG. 41B: Pulse-chase. MEFs labeled for 1 h with 3H-Ser; chase with cold Ser (n=3). FIG. 41C: Phospholipid synthesis in crude mitochondria (n=3 or 4) Error bars, SE; p<0.05. FIG. 41D: Cinnamycin sensitivity in MEFs. Left: Live/dead assay (1 μM cinnamycin for 10 min at 37° C.). Right: Cinnamycin-sensitivity assay (10 min at 37° C.).
AD patients have aberrant phospholipid profiles, both in fibroblasts and in brain (Pettegrew et al., (2001) Neurochem. Res. 26, 771-782; Murphy et al., (2006) Brain Res. Bull. 69, 79-85). PtdSer and PtdEtn are exported to the inner leaflet of the plasma membrane (Vance (2008) J. Lipid Res. 49, 1377-1387). […] Both the 3H-Ser and cinnamycin results are relevant to the pathogenesis of AD.
Cinnamycin sensitivity assays. To measure cinnamycin binding (Emoto et al. (1999) Proc. Natl. Acad. Sci. USA 96:12400-12405), cells are incubated with 125I-labeled streptavidin complexed with cinnamycin (Ro 09-0198) peptide complex (1251-SA-Cin; 50,000 cpm/ml; Sigma) for 1 h at 39.5° C. The radioactivities of 125I-SA-Cin bound to the cells is analyzed by bioimage analyzer. […] Viability will be measured by “live/dead” assay (Molecular Probes).

The subject of data set [3] is fibroblasts from FAD patients with pathogenic mutations in PS1 and from sporadic AD (SAD) patients. Put plainly: Cinnamycin sensitivity, Live/Dead assay in patient fibroblasts. The data set is classed as cell-based, human. To be noted: 1 μM cinnamycin for 10 min at 37° C.; fibroblasts from SAD patients (FIG. 43). As to the method: FIG. 43. Cinnamycin sensitivity in fibroblasts from FAD patients with pathogenic mutations in PS1 (PS1) and from sporadic AD (SAD) patients. Cells were treated with 1 μM cinnamycin for 10 min at 37° C., and viabitlity was monitored by Live/Dead assay.

Data set [4] has as its system human erythrocytes. To be noted: incubation time ~2 min, 37° C., read-out: LC50 (concentration to kill 50% of the cells); cited from earlier work.
Data set [5] addresses GSK3B (Homo sapiens, UniProt P49841). To be noted: cited from earlier work.

Chain of GSK3B (P49841 whole entry, species assumed): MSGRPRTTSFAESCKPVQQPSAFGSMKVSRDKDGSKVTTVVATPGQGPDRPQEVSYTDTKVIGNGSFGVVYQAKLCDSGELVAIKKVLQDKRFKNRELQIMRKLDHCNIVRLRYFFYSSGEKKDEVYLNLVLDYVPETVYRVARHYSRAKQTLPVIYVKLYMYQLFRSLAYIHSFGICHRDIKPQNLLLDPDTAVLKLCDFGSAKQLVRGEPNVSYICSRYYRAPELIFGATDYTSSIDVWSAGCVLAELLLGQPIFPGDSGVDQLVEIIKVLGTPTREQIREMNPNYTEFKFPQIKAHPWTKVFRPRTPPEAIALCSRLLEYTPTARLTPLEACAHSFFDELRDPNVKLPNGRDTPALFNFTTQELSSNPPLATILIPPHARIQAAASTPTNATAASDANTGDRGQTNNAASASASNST

For the molecule `O=C1NC(=O)C(c2ccccc2[N+](=O)[O-])=C1Nc1ccc(O)c(Cl)c1` [SB415286], the “Effect on neurite outgrowth” value in data set [1] is “inhibit neurite outgrowth”.
Turning to cinnamycin, in data set [2], the “Sensitivity to cinnamycin vs. controls” value was “more sensitive”. Also, in data set [3], the “Cinnamycin sensitivity (viability by Live/Dead assay)” value is reported as “cinnamycin sensitivity in the SAD patients”. Moreover, the CC50 in data set [4] is ~1000 µM.
For the molecule `Cn1sc(=O)n(Cc2ccccc2)c1=O` [TDZD-8], in data set [5], the “Effect on GSK3B activity” value is on record as “inhibit GSK3B activity”.

Source of the values: patent publication US20110256565A1, “METHODS FOR DIAGNOSIS AND TREATMENT OF NEURODEGENERATIVE DISEASES OR DISORDERS” (priority 2008, published 2011).
